Source: US20130281465A1, “PYRAZOLE DERIVATIVE” (TAISHO PHARMACEUTICAL CO., LTD., priority 2010, published 2013)

Assays:
[1] = molecular target: T1, human orexin type 1 receptor (hOX1R) (Homo sapiens, UniProt O43613); test: Orexin receptor antagonistic activity, intracellular Ca2+ fluorescence (FDSS) in CHO cells expressing hOX1R; format: cell-based; conditions: CHO cells forced to express hOX1R; orexin-A analogue peptide ligand 300 pM; Fluo-4 maximum fluorescence; read-out: IC50 value OX1R
T1 construct: expressed in transfected cells; host or cells: Chinese hamster ovary (CHO) cells
T1 sequence (O43613 1-425): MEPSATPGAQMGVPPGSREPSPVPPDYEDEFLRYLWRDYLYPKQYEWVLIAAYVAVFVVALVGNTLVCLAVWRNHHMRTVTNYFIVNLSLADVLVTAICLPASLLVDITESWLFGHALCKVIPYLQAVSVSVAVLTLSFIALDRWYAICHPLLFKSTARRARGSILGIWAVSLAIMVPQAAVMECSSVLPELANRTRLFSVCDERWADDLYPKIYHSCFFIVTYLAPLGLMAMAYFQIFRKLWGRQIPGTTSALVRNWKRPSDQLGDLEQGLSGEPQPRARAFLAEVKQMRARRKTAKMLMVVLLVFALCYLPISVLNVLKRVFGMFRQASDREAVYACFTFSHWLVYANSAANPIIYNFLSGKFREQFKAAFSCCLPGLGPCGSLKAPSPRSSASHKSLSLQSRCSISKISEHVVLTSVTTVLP
Protocol: (§1) The antagonistic activity of each test compound against human orexin type 1 receptor (hOX1R) and orexin type 2 receptor (hOX2R) was performed as described in the literature with a modification (Toshikatsu Okumura et al., Biochemical and Biophysical Research Communications 280, 976-981, 2001). Chinese hamster ovary (CHO) cells forced to express hOX1R or hOX2R were seeded at 20,000 cells/well on a 96 well Black clear bottom plates (Nunc) and cultured for 16 hours under conditions of 37° C. and 5% CO2 using a Ham's F-12 medium containing 0.1 mM MEM non-essential amino acids, 0.5 mg/ml G418, and 10% fetal bovine serum (all from Invitrogen Corp.). After removal of the medium, 100 μL of the assay buffer (25 mM HEPES (Dojindo Laboratories), Hanks' balanced salt solution (Invitrogen Corp.), 0.1% bovine serum albumin, 2.5 mM probenecid, 200 μg/ml Amaranth (all from Sigma-Aldrich Corp.), pH 7.4) containing 0.5 μM Fluo-4AM ester (Dojindo Laboratories) was added thereto, and the cells were incubated for 60 minutes under conditions of 37° C. and 5% CO2. After removal of the buffer solution for assay containing Fluo-4AM ester, the test compound was dissolved at a concentration of 10 mM in dimethyl sulfoxide and diluted with the assay buffer, and 150 μL of the diluted solution was then added to each wells, which were then incubated for 30 minutes.
(§2) A peptide (Pyr-[…]11e-Leu-Thr-Leu-NH2; Peptide Institute, Inc.) substituted 2 amino acids of human orexin-A was diluted with the assay buffer to 300 pM (final concentration for hOX1R) or 3 nM (final concentration for hOX2R). 50 μL of this ligand solution was added thereto to start reaction. During the reaction, the fluorescence value of each well was measured every one second for 3 minutes using Functional Drug Screening System (FDSS; manufactured by Hamamatsu Photonics K.K.), and antagonistic activity was determined with the maximum fluorescence value as an index for intracellular Ca^2+ concentration. The antagonistic activity of the test compound was calculated with the fluorescence value of a well supplemented with only a dilution buffer solution as 100% and the fluorescence value of a well supplemented with a buffer solution containing neither the ligand nor the compound as 0%, and determined in terms of 50% inhibitory concentration (IC50 value) from fluorescence values derived from the test compound added at varying concentrations.

[2] = molecular target: T2, orexin type 2 receptor (hOX2R) (Homo sapiens, UniProt O43614); test: Orexin receptor antagonistic activity, intracellular Ca2+ fluorescence (FDSS) in CHO cells expressing hOX2R; format: cell-based; conditions: CHO cells forced to express hOX2R; orexin-A analogue peptide ligand 3 nM; Fluo-4 maximum fluorescence; read-out: IC50 value OX2R
T2 construct: expressed in transfected cells; host or cells: Chinese hamster ovary (CHO) cells
T2 sequence (O43614 1-444): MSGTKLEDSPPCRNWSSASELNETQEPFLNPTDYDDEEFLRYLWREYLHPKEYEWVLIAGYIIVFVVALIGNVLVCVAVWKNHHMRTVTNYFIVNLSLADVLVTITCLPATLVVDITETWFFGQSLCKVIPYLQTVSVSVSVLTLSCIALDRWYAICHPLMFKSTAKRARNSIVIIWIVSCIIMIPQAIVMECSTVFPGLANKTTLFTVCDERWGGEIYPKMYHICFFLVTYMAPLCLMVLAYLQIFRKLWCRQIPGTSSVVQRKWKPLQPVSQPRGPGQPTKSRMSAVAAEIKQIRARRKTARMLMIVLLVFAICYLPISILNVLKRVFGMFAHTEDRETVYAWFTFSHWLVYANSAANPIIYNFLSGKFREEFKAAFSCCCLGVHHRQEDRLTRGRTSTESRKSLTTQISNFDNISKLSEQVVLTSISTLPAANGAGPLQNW
Protocol: as §1, §2

CCN(CCn1ccc(-c2ccc(F)cn2)n1)C(=O)c1cc(F)ccc1-n1nccn1 [Example 24, N-ethyl-N-{2-[3-(5-fluoropyridin-2-yl)-1H-pyrazol-1-yl]ethyl}-5-fluoro-2-(2H-1,2,3-triazol-2-yl)benzamide]
IC50 [1]: 7.2 nM
IC50 [2]: 12.2 nM

CCN(CCn1ccc(-c2ccc(F)cn2)n1)C(=O)c1cc(C)ccc1-c1ncccn1 [Example 26, N-ethyl-N-{2-[3-(5-fluoropyridin-2-yl)-1H-pyrazol-1-yl]ethyl}-5-methyl-2-(pyrimidin-2-yl)benzamide]
IC50 [1]: 1.4 nM
IC50 [2]: 3.7 nM

Cc1ccc(-n2nccn2)c(C(=O)N(CCn2ccc(-c3ccc(F)cn3)n2)C(C)C)c1 [Example 27, N-{2-[3-(5-fluoropyridin-2-yl)-1H-pyrazol-1-yl]ethyl}-5-methyl-N-(propan-2-yl)-2-(2H-1,2,3-triazol-2-yl)benzamide]
IC50 [1]: 20.9 nM
IC50 [2]: 43.6 nM

Cc1ccc(-n2nccn2)c(C(=O)N(CCn2ccc(-c3ccc(F)cc3)n2)CC2CC2)c1 [Example 28, N-(cyclopropylmethyl)-N-{2-[3-(4-fluorophenyl)-1H-pyrazol-1-yl]ethyl}-5-methyl-2-(2H-1,2,3-triazol-2-yl)benzamide]
IC50 [1]: 1.2 nM
IC50 [2]: 4 nM

Cc1ccc(-n2nccn2)c(C(=O)N(CCn2ccc(-c3ccccc3)n2)CC2CC2)c1 [Example 29, N-(cyclopropylmethyl)-5-methyl-N-[2-(3-phenyl-1H-pyrazol-1-yl)ethyl]-2-(2H-1,2,3-triazol-2-yl)benzamide]
IC50 [1]: 1.5 nM
IC50 [2]: 6.1 nM

Cc1ccc(-n2nccn2)c(C(=O)N(CCn2ccc(-c3ccc(F)cn3)n2)C2CC2)c1 [Example 30, N-cyclopropyl-N-{2-[3-(5-fluoropyridin-2-yl)-1H-pyrazol-1-yl]ethyl}-5-methyl-2-(2H-1,2,3-triazol-2-yl)benzamide]
IC50 [1]: 1.3 nM
IC50 [2]: 1.8 nM

Cc1ccc(-n2nccn2)c(C(=O)N(CCn2ccc(-c3ccc(F)cn3)n2)C2COC2)c1 [Example 31, N-{2-[3-(5-fluoropyridin-2-yl)-1H-pyrazol-1-yl]ethyl}-5-methyl-N-(oxetan-3-yl)-2-(2H-1,2,3-triazol-2-yl)benzamide]
IC50 [1]: 24.9 nM
IC50 [2]: 26.9 nM

CCN(CCn1ccc(-c2ccc(F)cn2)n1)C(=O)c1ccccc1-n1nccn1 [Example 32, N-ethyl-N-{2-[3-(5-fluoropyridin-2-yl)-1H-pyrazol-1-yl]ethyl}-2-(2H-1,2,3-triazol-2-yl)benzamide]
IC50 [1]: 9 nM
IC50 [2]: 6.6 nM

CCN(CCn1ccc(-c2ccc(F)cn2)n1)C(=O)c1cc(Cl)ccc1-n1nccn1 [Example 33, 5-Chloro-N-ethyl-N-{2-[3-(5-fluoropyridin-2-yl)-1H-pyrazol-1-yl]ethyl}-2-(2H-1,2,3-triazol-2-yl)benzamide]
IC50 [1]: 6.5 nM
IC50 [2]: 2.2 nM

CCN(CCn1ccc(-c2ccc(F)cn2)n1)C(=O)c1ccccc1-c1ncccn1 [Example 34, N-ethyl-N-{2-[3-(5-fluoropyridin-2-yl)-1H-pyrazol-1-yl]ethyl}-2-(pyrimidin-2-yl)benzamide]
IC50 [1]: 8.4 nM
IC50 [2]: 8.9 nM

CCN(CCn1ccc(-c2ccc(F)cn2)n1)C(=O)c1cc(C)ccc1-c1ccccn1 [Example 35, N-ethyl-N-{2-[3-(5-fluoropyridin-2-yl)-1H-pyrazol-1-yl]ethyl}-5-methyl-2-(pyridin-2-yl)benzamide]
IC50 [1]: 1.8 nM
IC50 [2]: 11.7 nM

CCN(CCn1ccc(-c2ccc(F)cn2)n1)C(=O)c1cc(C)ccc1-c1cccnc1 [Example 36, N-ethyl-N-{2-[3-(5-fluoropyridin-2-yl)-1H-pyrazol-1-yl]ethyl}-5-methyl-2-(pyridin-3-yl)benzamide]
IC50 [1]: 30.6 nM
IC50 [2]: 58.9 nM

CCN(CCn1cc(-c2ccc(F)cn2)cn1)C(=O)c1ccccc1-c1ncccn1 [Example 37, N-ethyl-N-{2-[4-(5-fluoropyridin-2-yl)-1H-pyrazol-1-yl]ethyl}-2-(pyrimidin-2-yl)benzamide]
IC50 [1]: 110 nM
IC50 [2]: 301 nM

CCN(CCn1ccc(-c2cccc(C)n2)n1)C(=O)c1cc(C)ccc1-n1nccn1 [Example 39, N-ethyl-5-methyl-N-{2-[3-(6-methylpyridin-2-yl)-1H-pyrazol-1-yl]ethyl}-2-(2H-1,2,3-triazol-2-yl)benzamide]
IC50 [1]: 1.5 nM
IC50 [2]: 2.2 nM

CCN(CCn1ccc(-c2ccc(F)cn2)n1)C(=O)c1cc(F)ccc1-c1ncccn1 [Example 41, N-ethyl-5-fluoro-N-{2-[3-(5-fluoropyridin-2-yl)-1H-pyrazol-1-yl]ethyl}-2-(pyrimidin-2-yl)benzamide]
IC50 [1]: 0.5 nM
IC50 [2]: 7.6 nM

CCN(CCn1ccc(-c2ccc(F)cn2)n1)C(=O)c1cc(Cl)ccc1-c1ncccn1 [Example 43, N-ethyl-5-chloro-N-{2-[3-(5-fluoropyridin-2-yl)-1H-pyrazol-1-yl]ethyl}-2-(pyrimidin-2-yl)benzamide]
IC50 [1]: 1.8 nM
IC50 [2]: 3.5 nM

CCN(CCn1ccc(-c2ccc(F)cn2)n1)C(=O)c1ccc(F)cc1-n1nccn1 [Example 44, N-ethyl-4-fluoro-N-{2-[3-(5-fluoropyridin-2-yl)-1H-pyrazol-1-yl]ethyl}-2-(2H-1,2,3-triazol-2-yl)benzamide]
IC50 [1]: 17.3 nM
IC50 [2]: 29.8 nM

CCN(CCn1ccc(-c2ccc(F)cn2)n1)C(=O)c1c(F)cccc1-n1nccn1 [Example 45, N-ethyl-2-fluoro-N-{2-[3-(5-fluoropyridin-2-yl)-1H-pyrazol-1-yl]ethyl}-6-(2H-1,2,3-triazol-2-yl)benzamide]
IC50 [1]: 38.7 nM
IC50 [2]: 46.9 nM

CCN(CCn1ccc(-c2ccc(F)cn2)n1)C(=O)c1c(F)cccc1-c1ncccn1 [Example 46, N-ethyl-2-fluoro-N-{2-[3-(5-fluoropyridin-2-yl)-1H-pyrazol-1-yl]ethyl}-6-(pyrimidin-2-yl)benzamide]
IC50 [1]: 92.5 nM
IC50 [2]: 149 nM

CCN(CCn1ccc(-c2ccc(F)cn2)n1)C(=O)c1ccc(C)cc1-n1nccn1 [Example 47, N-ethyl-N-{2-[3-(5-fluoropyridin-2-yl)-1H-pyrazol-1-yl]ethyl}-4-methyl-2-(2H-1,2,3-triazol-2-yl)benzamide]
IC50 [1]: 0.8 nM
IC50 [2]: 7.1 nM

CCN(CCn1ccc(-c2ccc(F)cn2)n1)C(=O)c1cccc(F)c1-n1nccn1 [Example 48, N-ethyl-3-fluoro-N-{2-[3-(5-fluoropyridin-2-yl)-1H-pyrazol-1-yl]ethyl}-2-(2H-1,2,3-triazol-2-yl)benzamide]
IC50 [1]: 5.5 nM
IC50 [2]: 10.3 nM

CCN(CCn1ccc(-c2ccc(F)cn2)n1)C(=O)c1ccc(F)cc1-c1ncccn1 [Example 49, N-ethyl-4-fluoro-N-{2-[3-(5-fluoropyridin-2-yl)-1H-pyrazol-1-yl]ethyl}-2-(pyrimidin-2-yl)benzamide]
IC50 [1]: 7.1 nM
IC50 [2]: 48.8 nM

CCN(CCn1ccc(-c2ccc(F)cn2)n1)C(=O)c1cc(OC)ccc1-n1nccn1 [Example 50, N-ethyl-N-{2-[3-(5-fluoropyridin-2-yl)-1H-pyrazol-1-yl]ethyl}-5-methoxy-2-(2H-1,2,3-triazol-2-yl)benzamide]
IC50 [1]: 20 nM
IC50 [2]: 214 nM
